Experimental data taken from US12540118B2, “Dendrene amide compound, bactericide and use thereof” (Jiangsu Flag Chemical Industry Co., Ltd., priority 2020, dated 2026).

Tests used:
[1] = biological target: T1, succinate dehydrogenase (Sus scrofa, UniProt A5GZW8+D0VWV4+Q007T0); experiment: Enzyme activity assay, succinate dehydrogenase (DCIP reduction); assay type: biochemical, porcine; settings: read-out: Inhibitors (10 μM, SQR)
T1 construct: isolated from porcine hearts; from tissue; host or cells: porcine heart
In short: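 Porcine heart succinate dehydrogenase (2 nM) in 100 mM sodium phosphate pH 7.4, 0.3 mM EDTA, 20 mM sodium succinate and 53 μM DCIP at 23° C with stirring. DCIP reduction followed at 600 nm (ε 21 mM^−1 cm^−1); linear slope minus baseline gives initial rate.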

[2] = system: Erysiphe graminis; experiment: Erysiphe graminis potting method; assay type: in vivo; settings: Blumeria graminis; 100 mg/L; read-out: Erysiphe graminis control rating
Description: The fungicidal activity of the control agents and target compounds are determined. The test and investigation method refers to SOP-SC-1116 Erysiphe graminis potting method in disinfectant rolls written by KANGZHUO and GUBAOGEN in “Standard operation specification for testing biological activity of pesticides”.

[3] = system: Sphaerotheca fuliginea; experiment: Sphaerotheca fuliginea potting method; assay type: in vivo; settings: Podosphaera fuliginea; 100 mg/L; read-out: Sphaerotheca fuliginea control rating
Description: The fungicidal activity of the control agents and target compounds are determined. The test and investigation method refers to SOP-SC-1101 sphaerotheca fuliginea potting method in disinfectant rolls written by KANGZHUO and GUBAOGEN in “Standard operation specification for testing biological activity of pesticides”.

T1 sequence (Q0QF01 43-664 partner): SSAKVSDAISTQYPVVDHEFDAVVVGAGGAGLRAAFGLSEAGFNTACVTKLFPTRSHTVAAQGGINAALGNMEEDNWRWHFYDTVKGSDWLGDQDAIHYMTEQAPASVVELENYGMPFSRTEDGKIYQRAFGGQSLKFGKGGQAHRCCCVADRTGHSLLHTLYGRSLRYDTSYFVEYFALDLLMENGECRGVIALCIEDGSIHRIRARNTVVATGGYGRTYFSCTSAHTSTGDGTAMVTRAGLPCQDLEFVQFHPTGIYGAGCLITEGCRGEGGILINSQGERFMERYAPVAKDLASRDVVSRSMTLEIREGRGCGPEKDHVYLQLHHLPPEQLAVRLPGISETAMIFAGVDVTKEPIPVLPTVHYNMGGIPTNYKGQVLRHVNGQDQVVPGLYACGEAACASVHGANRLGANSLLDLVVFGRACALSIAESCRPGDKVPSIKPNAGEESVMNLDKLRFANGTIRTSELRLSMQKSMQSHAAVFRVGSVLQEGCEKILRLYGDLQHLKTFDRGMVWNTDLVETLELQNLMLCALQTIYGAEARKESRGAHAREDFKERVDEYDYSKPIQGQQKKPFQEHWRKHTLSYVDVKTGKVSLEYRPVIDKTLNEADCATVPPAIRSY
T1 sequence (Q007T0 29-280): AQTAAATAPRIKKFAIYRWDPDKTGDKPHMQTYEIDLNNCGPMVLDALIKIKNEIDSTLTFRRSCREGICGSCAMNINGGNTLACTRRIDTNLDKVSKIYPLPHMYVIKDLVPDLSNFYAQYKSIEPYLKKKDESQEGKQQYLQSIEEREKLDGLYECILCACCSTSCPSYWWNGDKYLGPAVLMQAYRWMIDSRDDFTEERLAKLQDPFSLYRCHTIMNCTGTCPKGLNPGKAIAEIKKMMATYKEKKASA
T1 sequence (D0VWV4 30-169): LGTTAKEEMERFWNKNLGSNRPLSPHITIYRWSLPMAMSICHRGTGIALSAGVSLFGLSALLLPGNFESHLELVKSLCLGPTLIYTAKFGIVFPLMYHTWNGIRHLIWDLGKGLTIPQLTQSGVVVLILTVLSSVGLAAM
T1 sequence (A5GZW8 57-159 limits assumed): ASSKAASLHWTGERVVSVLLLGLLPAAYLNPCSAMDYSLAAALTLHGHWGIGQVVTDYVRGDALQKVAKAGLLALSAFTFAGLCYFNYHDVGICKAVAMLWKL

Row | Compound | inhibition at 10 µM [1] [%] | pest or weed control at 100 µg/mL [2] [%] | pest or weed control at 100 µg/mL [3] [%]
1 | Cn1nc(C(F)F)c(C(=O)N(CC(=C(Cl)Cl)c2cccc(Cl)c2)C2CC2)c1F [Compound 117] | > 90 | 80 to 100 | 80 to 100
2 | Cc1cc(C(C)C)ccc1C(=C(Cl)Cl)C(C)N(C(=O)c1c(C(F)F)nn(C)c1F)C1CC1 (stereo not drawn) [Compound 201] | > 90 | 80 to 100 | 80 to 100
3 | Cn1nc(C(F)F)c(C(=O)N(CC(=C(Cl)Cl)c2ccc(Br)c(Br)c2)C2CC2)c1F [Compound 138] | > 90 | 80 to 100 | 80 to 100
4 | CC(C(=C(Cl)Cl)c1cccc(S(C)(=O)=O)c1)N(C(=O)c1c(C(F)F)nn(C)c1F)C1CC1 (stereo not drawn) [Compound 213] | > 90 | 80 to 100 | 80 to 100
5 | C=C(CN(C(=O)c1c(C(F)F)nn(C)c1F)C1CC1)c1ccccc1S(C)(=O)=O [Compound 50] | > 90 | 80 to 100 | 80 to 100
6 | Cc1ccc(C(C)C)cc1C(CN(C(=O)c1c(C(F)F)nn(C)c1F)C1CC1)=C(Cl)Cl [Compound 144] | > 90 | 80 to 100 | 80 to 100
7 | C=C(CN(C(=O)c1c(C(F)F)nn(C)c1F)C1CC1)c1ccc(Cl)c(Cl)c1 [Compound 10] | > 90 | 80 to 100 | 80 to 100
8 | CC(C(=C(Cl)Cl)c1ccc(C#CC2CC2)cc1F)N(C(=O)c1c(C(F)F)nn(C)c1F)C1CC1 (stereo not drawn) [Compound 219] | > 90 | 80 to 100 | 80 to 100
9 | CC(C(=C(Cl)Cl)c1c(Br)cc(Br)cc1Br)N(C(=O)c1c(C(F)F)nn(C)c1F)C1CC1 (stereo not drawn) [Compound 190] | > 90 | 80 to 100 | 80 to 100
10 | CC(C(=C(Cl)Cl)c1cc(Cl)ccc1Cl)N(C(=O)c1c(C(F)F)nn(C)c1F)C1CC1 (stereo not drawn) [Compound 171] | > 90 | 80 to 100 | 80 to 100
11 | CC(C(=C(Cl)Cl)c1c(F)cccc1F)N(C(=O)c1c(C(F)F)nn(C)c1F)C1CC1 (stereo not drawn) [Compound 181] | > 90 | 80 to 100 | 80 to 100
12 | Cc1cc(C)cc(C(=C(Cl)Cl)C(C)N(C(=O)c2c(C(F)F)nn(C)c2F)C2CC2)c1 (stereo not drawn) [Compound 205] | > 90 | 80 to 100 | 80 to 100
13 | C=C(c1c(Cl)cc(Cl)cc1Cl)C(C)N(C(=O)c1c(C(F)F)nn(C)c1F)C1CC1 (stereo not drawn) [Compound 74] | > 90 | 80 to 100 | 80 to 100
14 | CC(C(=C(Cl)Cl)c1cccc(Cl)c1)N(C(=O)c1c(C(F)F)nn(C)c1F)C1CC1 (stereo not drawn) [Compound 169] | > 90 | 80 to 100 | 80 to 100
15 | C=C(c1cc(C(F)(F)F)ccc1Cl)C(C)N(C(=O)c1c(C(F)F)nn(C)c1F)C1CC1 (stereo not drawn) [Compound 100] | > 90 | 80 to 100 | 80 to 100
16 | C=C(CN(C(=O)c1c(C(F)F)nn(C)c1F)C1CC1)c1cc(F)c(Cl)cc1Cl [Compound 13] | > 90 | 80 to 100 | 80 to 100
17 | C=C(CN(C(=O)c1c(C(F)F)nn(C)c1F)C1CC1)c1ccc(Cl)cc1 [Compound 17] | > 90 | 80 to 100 | 80 to 100
18 | CC(C(=C(Cl)Cl)c1ccc(C#CC2CC2)cc1Cl)N(C(=O)c1c(C(F)F)nn(C)c1F)C1CC1 (stereo not drawn) [Compound 218] | > 90 | 80 to 100 | 80 to 100
19 | C=C(CN(C(=O)c1c(C(F)F)nn(C)c1F)C1CC1)c1c(Cl)cc(Cl)cc1Cl [Compound 19] | > 90 | 80 to 100 | 80 to 100
20 | Cc1ccc(C(C)(C)C)cc1C(CN(C(=O)c1c(C(F)F)nn(C)c1F)C1CC1)=C(Cl)Cl [Compound 147] | > 90 | 80 to 100 | 80 to 100
21 | Cn1nc(C(F)F)c(C(=O)N(CC(=C(Cl)Cl)c2cc(Cl)ccc2Cl)C2CC2)c1F [Compound 119] | > 90 | 80 to 100 | 80 to 100
22 | Cn1nc(C(F)F)c(C(=O)N(CC(=C(Cl)Cl)c2c(F)cccc2F)C2CC2)c1F [Compound 128] | > 90 | 80 to 100 | 80 to 100

Row | Compound | inhibition at 10 µM [1] [%] | pest or weed control at 100 µg/mL [2] [%] | pest or weed control at 100 µg/mL [3] [%]
23 | C=C(CN(C(=O)c1c(C(F)F)nn(C)c1F)C1CC1)c1cccc(S(C)(=O)=O)c1 [Compound 49] | > 90 | 80 to 100 | 80 to 100
24 | CC(C(=C(Cl)Cl)c1ccccc1Cl)N(C(=O)c1c(C(F)F)nn(C)c1F)C1CC1 (stereo not drawn) [Compound 168] | > 90 | 80 to 100 | 80 to 100
25 | C=C(c1ccccc1C(F)(F)F)C(C)N(C(=O)c1c(C(F)F)nn(C)c1F)C1CC1 (stereo not drawn) [Compound 71] | > 90 | 80 to 100 | 80 to 100
26 | C=C(CN(C(=O)c1c(C(F)F)nn(C)c1F)C1CC1)c1cccc(S(=O)(=O)CC)c1 [Compound 53] | > 90 | 80 to 100 | 70 to 80
27 | CC(C(=C(Cl)Cl)c1c(F)cc(F)cc1F)N(C(=O)c1c(C(F)F)nn(C)c1F)C1CC1 (stereo not drawn) [Compound 182] | > 90 | 80 to 100 | 80 to 100
28 | C=C(CN(C(=O)c1c(C(F)F)nn(C)c1F)C1CC1)c1cccc(Br)c1Br [Compound 86] | > 90 | 80 to 100 | 80 to 100
29 | Cc1ccccc1C(=C(Cl)Cl)C(C)N(C(=O)c1c(C(F)F)nn(C)c1F)C1CC1 (stereo not drawn) [Compound 202] | > 90 | 80 to 100 | 80 to 100
30 | Cc1ccc(C(=C(Cl)Cl)C(C)N(C(=O)c2c(C(F)F)nn(C)c2F)C2CC2)cc1C (stereo not drawn) [Compound 204] | > 90 | 80 to 100 | 80 to 100
31 | Cc1ccc(C(C)C)cc1C(=C(Cl)Cl)C(C)N(C(=O)c1c(C(F)F)nn(C)c1F)C1CC1 (stereo not drawn) [Compound 197] | > 90 | 80 to 100 | 80 to 100
32 | C=C(c1cc(C(C)(C)C)ccc1C)C(C)N(C(=O)c1c(C(F)F)nn(C)c1F)C1CC1 (stereo not drawn) [Compound 95] | > 90 | 80 to 100 | 80 to 100
33 | CC(C(=C(Cl)Cl)c1c(Cl)cccc1Cl)N(C(=O)c1c(C(F)F)nn(C)c1F)C1CC1 (stereo not drawn) [Compound 172] | > 90 | 80 to 100 | 80 to 100
34 | Cn1nc(C(F)F)c(C(=O)N(CC(=C(Cl)Cl)c2c(Br)cc(Br)cc2Br)C2CC2)c1F [Compound 137] | > 90 | 80 to 100 | 80 to 100
35 | C=C(c1ccc(C#CC2CC2)cc1F)C(C)N(C(=O)c1c(C(F)F)nn(C)c1F)C1CC1 (stereo not drawn) [Compound 110] | > 90 | 80 to 100 | 80 to 100
36 | Cc1cc(C)cc(C(CN(C(=O)c2c(C(F)F)nn(C)c2F)C2CC2)=C(Cl)Cl)c1 [Compound 152] | > 90 | 80 to 100 | 80 to 100
37 | C=C(CN(C(=O)c1c(C(F)F)nn(C)c1F)C1CC1)c1cccc(F)c1F [Compound 12] | > 90 | 80 to 100 | 70 to 80
38 | C=C(CN(C(=O)c1c(C(F)F)nn(C)c1F)C1CC1)c1cccc(Br)c1 [Compound 5] | > 90 | 80 to 100 | < 70
39 | Cc1ccc(C(C)(C)C)c(C(=C(Cl)Cl)C(C)N(C(=O)c2c(C(F)F)nn(C)c2F)C2CC2)c1 (stereo not drawn) [Compound 199] | > 90 | 80 to 100 | 80 to 100
40 | CC(C(=C(Cl)Cl)c1ccc(F)c(F)c1)N(C(=O)c1c(C(F)F)nn(C)c1F)C1CC1 (stereo not drawn) [Compound 183] | > 90 | 80 to 100 | 80 to 100
41 | Cc1cccc(C)c1C(CN(C(=O)c1c(C(F)F)nn(C)c1F)C1CC1)=C(Cl)Cl [Compound 142] | > 90 | 80 to 100 | 80 to 100
42 | Cn1nc(C(F)F)c(C(=O)N(CC(=C(Cl)Cl)c2cc(Cl)cc(Cl)c2)C2CC2)c1F [Compound 122] | > 90 | 80 to 100 | 80 to 100
43 | C=C(c1c(F)cc(F)cc1F)C(C)N(C(=O)c1c(C(F)F)nn(C)c1F)C1CC1 (stereo not drawn) [Compound 79] | > 90 | 80 to 100 | 80 to 100
44 | C=C(c1cccc(S(C)(=O)=O)c1)C(C)N(C(=O)c1c(C(F)F)nn(C)c1F)C1CC1 (stereo not drawn) [Compound 104] | > 90 | 80 to 100 | 80 to 100
